In PubChem BioAssay (NCI):
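Here, GI50 denotes the concentration required for 50% inhibition of growth. TGI: total growth inhibition.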

What was measured:
Assay in all cases: growth of human tumour cells (NCI), 384-well format
SK-MEL-28 melanoma = test system: SK-MEL-28 melanoma
U251 glioblastoma = test system: U251 glioblastoma
T-47D breast = test system: T-47D breast
HOP-92 NSCLC = test system: HOP-92 NSCLC
SN12C renal = test system: SN12C renal
ACHN renal = test system: ACHN renal
MDA-MB-468 breast = test system: MDA-MB-468 breast
SNB-19 CNS = test system: SNB-19 CNS
SK-MEL-5 melanoma = test system: SK-MEL-5 melanoma
K-562 leukemia = test system: K-562 leukemia
SK-MEL-2 melanoma = test system: SK-MEL-2 melanoma
MDA-MB-231 breast = test system: MDA-MB-231 breast
KM12 colon = test system: KM12 colon

In the case of `C=CC(=O)Nc1cccc(Oc2nc(Nc3ccc(N4CCN(C)CC4)cc3)nc3ccsc23)c1`, the GI50 (SK-MEL-28 melanoma) is reported as 1740 nM, the TGI (SK-MEL-28 melanoma) is reported as 3140 nM and the GI50 (U251 glioblastoma) is reported as 1650 nM. It also gave a TGI (U251 glioblastoma) of 3060 nM, a GI50 (T-47D breast) of 1500 nM and a TGI (T-47D breast) of 2840 nM. It also gave a GI50 (HOP-92 NSCLC) of 1370 nM, a TGI (HOP-92 NSCLC) of 2950 nM and a GI50 (SN12C renal) of 1350 nM. For the same compound, the TGI (SN12C renal) was 2750 nM, the GI50 (ACHN renal) was 1260 nM and the TGI (ACHN renal) was 2690 nM. The GI50 (MDA-MB-468 breast) was 191 nM, the TGI (MDA-MB-468 breast) was 629 nM and the GI50 (SNB-19 CNS) was 1820 nM. For the same compound, the TGI (SNB-19 CNS) was 3700 nM, the GI50 (SK-MEL-5 melanoma) was 1840 nM and the TGI (SK-MEL-5 melanoma) was 3250 nM. The GI50 (K-562 leukemia) was 1380 nM, the TGI (K-562 leukemia) was 2720 nM and the GI50 (SK-MEL-2 melanoma) was 1610 nM. It also gave a TGI (SK-MEL-2 melanoma) of 2970 nM, a GI50 (MDA-MB-231 breast) of 1700 nM and a TGI (MDA-MB-231 breast) of 3330 nM. It also gave a GI50 (KM12 colon) of 1590 nM and a TGI (KM12 colon) of 3120 nM.
